This test deals with Acetylcholinesterase (Homo sapiens, UniProt P22303). The experiment in a line: Inhibition of recombinant human AChE. As to conditions: read-out: kon (M-1-s-1).
Chain of Acetylcholinesterase (P22303 whole entry): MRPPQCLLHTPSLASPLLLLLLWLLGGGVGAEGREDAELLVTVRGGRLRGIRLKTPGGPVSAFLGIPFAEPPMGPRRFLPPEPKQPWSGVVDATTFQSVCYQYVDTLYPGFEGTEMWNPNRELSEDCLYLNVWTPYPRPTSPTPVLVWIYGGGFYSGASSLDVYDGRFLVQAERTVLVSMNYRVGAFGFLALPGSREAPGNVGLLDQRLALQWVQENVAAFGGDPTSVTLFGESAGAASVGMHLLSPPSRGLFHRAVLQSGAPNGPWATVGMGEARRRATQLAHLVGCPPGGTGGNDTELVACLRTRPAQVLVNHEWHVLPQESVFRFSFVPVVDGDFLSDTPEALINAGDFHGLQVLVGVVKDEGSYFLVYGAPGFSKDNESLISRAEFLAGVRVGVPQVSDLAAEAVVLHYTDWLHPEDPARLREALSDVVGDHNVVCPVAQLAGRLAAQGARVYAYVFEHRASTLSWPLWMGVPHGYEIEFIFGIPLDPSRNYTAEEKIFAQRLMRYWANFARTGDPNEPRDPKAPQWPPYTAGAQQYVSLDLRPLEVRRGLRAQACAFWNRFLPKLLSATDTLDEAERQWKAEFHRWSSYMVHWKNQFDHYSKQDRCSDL
A word on the kon: it is a measure of how fast the partners come together. Consider `CNC(=O)Oc1cccc(C(C)(C)C)c1`, for which the kon was 2100 M⁻¹ s⁻¹.

In the case of `CCC(C)n1cc(OC(=O)NC)cn1` (stereo not drawn), the kon turned out to be 13400 M⁻¹ s⁻¹.

Take `Cc1cc(=O)n(C(=O)N(C)C)o1`: the kon stood at 20.3 M⁻¹ s⁻¹.

Consider `CN(C)C(=O)n1oc(C2CC2)cc1=O`, for which the association rate constant (kon) was determined as 1720 M⁻¹ s⁻¹.

Turning to `CC(C)c1cc(=O)n(C(=O)N(C)C)o1`, the kon was 9350 M⁻¹ s⁻¹.

For the compound `CN(C)C(=O)n1oc(C2CCC2)cc1=O`, the association rate constant (kon) amounted to 3880 M⁻¹ s⁻¹.

Take `CCC(C)c1cc(=O)n(C(=O)N(C)C)o1` (stereo not drawn): the on-rate (kon) is 36200 M⁻¹ s⁻¹.

Consider `CN(C)C(=O)n1oc(C2CCCC2)cc1=O`, for which the kon stood at 11300 M⁻¹ s⁻¹.

As for `CCCC(C)c1cc(=O)n(C(=O)N(C)C)o1` (stereo not drawn), the on-rate constant (kon) was 51800 M⁻¹ s⁻¹.

For `CCC(CC)c1cc(=O)n(C(=O)N(C)C)o1`, the on-rate constant (kon) was determined as 33200 M⁻¹ s⁻¹.

Regarding `CC(C)Cc1cc(=O)n(C(=O)N(C)C)o1`, the kon came out at 515 M⁻¹ s⁻¹.

On to `CCC(C)Cc1cc(=O)n(C(=O)N(C)C)o1` (stereo not drawn), for which the association rate constant (kon) is 1870 M⁻¹ s⁻¹.

For the compound `CC(C)CCc1cc(=O)n(C(=O)N(C)C)o1`, the kon was 1350 M⁻¹ s⁻¹.

On to `CN(C)C(=O)n1oc(CCC2CC2)cc1=O`, for which the association rate constant (kon) was 2400 M⁻¹ s⁻¹.

As to `CN(C)C(=O)n1oc(CCC2CCC2)cc1=O`, the kon came to 1240 M⁻¹ s⁻¹.

On to `CN(C)C(=O)n1oc(CCC2CCCC2)cc1=O`, for which the on-rate (kon) is 1530 M⁻¹ s⁻¹.

With `CCCC(C)c1cc(=O)n(C(=O)N2CCC2)o1` (stereo not drawn), the kon stood at 31000 M⁻¹ s⁻¹.

Regarding `CCCC(C)c1cc(=O)n(C(=O)N(C)CC)o1` (stereo not drawn), the association rate constant (kon) is 18000 M⁻¹ s⁻¹.

Turning to `CCCC(C)c1cc(=O)n(C(=O)N(CC)CC)o1` (stereo not drawn), the kon turned out to be 3000 M⁻¹ s⁻¹.

Consider `CCCC(C)c1cc(=O)n(C(=O)N2CCCC2)o1` (stereo not drawn), for which the kon came out at 6320 M⁻¹ s⁻¹.

Regarding `CCCC(C)c1cc(=O)n(C(=O)N2CCOCC2)o1` (stereo not drawn), the kon came out at 433 M⁻¹ s⁻¹.

On to `Cc1cc(OC(=O)N(C)C)no1`, for which the on-rate (kon) was 1.97 M⁻¹ s⁻¹.

Take `CN(C)C(=O)Oc1cc(C2CC2)on1`: the kon was 33.7 M⁻¹ s⁻¹.

Consider `CC(C)c1cc(OC(=O)N(C)C)no1`, for which the association rate constant (kon) stood at 74.3 M⁻¹ s⁻¹.

With `CN(C)C(=O)Oc1cc(C2CCC2)on1`, the association rate constant (kon) was 31 M⁻¹ s⁻¹.

In the case of `CCC(C)c1cc(OC(=O)N(C)C)no1` (stereo not drawn), the on-rate constant (kon) came out at 1000 M⁻¹ s⁻¹.

Consider `CN(C)C(=O)Oc1cc(C2CCCC2)on1`, for which the kon was 77 M⁻¹ s⁻¹.

As to `CCCC(C)c1cc(OC(=O)N(C)C)no1` (stereo not drawn), the kon was found to be 848 M⁻¹ s⁻¹.

With `CCC(CC)c1cc(OC(=O)N(C)C)no1`, the on-rate constant (kon) is 151 M⁻¹ s⁻¹.

On to `CCCCC(CC)c1cc(OC(=O)N(C)C)no1` (stereo not drawn), for which the kon amounted to 35.5 M⁻¹ s⁻¹.

On to `CC(C)Cc1cc(OC(=O)N(C)C)no1`, for which the association rate constant (kon) turned out to be 26.5 M⁻¹ s⁻¹.

Take `CCC(C)Cc1cc(OC(=O)N(C)C)no1` (stereo not drawn): the association rate constant (kon) stood at 28.3 M⁻¹ s⁻¹.

In the case of `CN(C)C(=O)Oc1cc(CC(C)(C)C)on1`, the kon was 7.33 M⁻¹ s⁻¹.

For the compound `CC(C)CCc1cc(OC(=O)N(C)C)no1`, the kon came out at 31.8 M⁻¹ s⁻¹.

For `CN(C)C(=O)Oc1cc(CCC2CC2)on1`, the on-rate (kon) is 138 M⁻¹ s⁻¹.

As to `CN(C)C(=O)Oc1cc(CCC2CCC2)on1`, the kon turned out to be 121 M⁻¹ s⁻¹.

For the compound `CN(C)C(=O)Oc1cc(CCC2CCCC2)on1`, the kon stood at 218 M⁻¹ s⁻¹.

Take `CCCC(C)c1cc(OC(=O)N(C)CC)no1` (stereo not drawn): the kon was found to be 152 M⁻¹ s⁻¹.

In the case of `CCCC(C)c1cc(OC(=O)N2CCCC2)no1` (stereo not drawn), the on-rate (kon) came to 27 M⁻¹ s⁻¹.

On to `CCCC(C)c1cc(OC(=O)N2CCOCC2)no1` (stereo not drawn), for which the on-rate constant (kon) worked out at 44.7 M⁻¹ s⁻¹.

Regarding `CNC(=O)Oc1cccc2c1OC(C)(C)O2` [CHEBI:34556], the kon worked out at 1850 M⁻¹ s⁻¹.

As for `CNC(=O)Oc1cccc2c1OC(C)(C)C2` [CHEBI:34611], the kon stood at 7130 M⁻¹ s⁻¹.

In the case of `CNC(=O)Oc1ccccc1OC(C)C` [CHEBI:34938], the kon turned out to be 283 M⁻¹ s⁻¹.

The record behind these values is BindingDB's records for doi:10.1016/j.bmc.2015.01.026 (Virginia Tech, 2015).
